How the values were obtained:
[1] = target: Tyrosine-protein kinase ABL2 (Homo sapiens, UniProt P42684); assay: Selectivity interaction (KinomeScan (DiscoverX)) EUB0001049a ABL2; conditions: at 1 µM
[2] = target: Cyclin-dependent kinase 2 (Homo sapiens, UniProt P24941); assay: Selectivity interaction (Kinase panel (literature)) EUB0001199aCl CDK2; conditions: at 1 µM
[3] = system: Epidermal growth factor receptor (Homo sapiens), P00533 [UNDEFINED MUTATION]; assay: Selectivity interaction (KinomeScan (DiscoverX)) EUB0000229b EGFR; conditions: at 1 µM
[4] = target: Cyclin-dependent kinase 18 (Homo sapiens) (UniProt Q07002); assay: Selectivity interaction (KinomeScan (DiscoverX)) EUB0000229b CDK18; conditions: at 10 µM
[5] = Selectivity interaction (ActivX KiNativ screen (kinase selectivity in THP-1 cell lysates)) EUB0000639a STLK6; conditions: Selectivity number of off-targets 5; Selectivity number of targets 283; Source Knowledge https://pubmed.ncbi.nlm.nih.gov/28498658/; at 5 µM
[6] = target: T1, Serine/threonine-protein kinase Sgk3 (Homo sapiens) (UniProt Q96BR1); assay: Selectivity interaction (ActivX KiNativ screen (kinase selectivity in THP-1 cell lysates)) EUB0000639a SGK3; assay type: subcellular; conditions: lysate, at 0.04 µM
T1 sequence (whole entry): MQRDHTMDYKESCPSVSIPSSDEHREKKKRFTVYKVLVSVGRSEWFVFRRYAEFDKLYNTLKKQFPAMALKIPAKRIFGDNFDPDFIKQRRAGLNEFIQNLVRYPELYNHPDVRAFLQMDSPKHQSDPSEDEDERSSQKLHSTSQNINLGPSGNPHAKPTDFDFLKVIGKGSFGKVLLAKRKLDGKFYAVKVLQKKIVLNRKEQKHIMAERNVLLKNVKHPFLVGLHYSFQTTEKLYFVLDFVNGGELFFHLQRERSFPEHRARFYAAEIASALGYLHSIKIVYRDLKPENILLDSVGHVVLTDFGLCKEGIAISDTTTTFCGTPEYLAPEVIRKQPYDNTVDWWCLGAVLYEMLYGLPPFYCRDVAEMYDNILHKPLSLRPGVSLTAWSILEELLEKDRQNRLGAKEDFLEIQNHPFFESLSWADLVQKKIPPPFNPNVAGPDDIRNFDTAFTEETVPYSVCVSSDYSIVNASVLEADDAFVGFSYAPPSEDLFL

[7] = target: SRSF protein kinase 1 (Homo sapiens, UniProt Q96SB4); assay: Selectivity interaction (KinomeScan (DiscoverX)) EUB0000595a SRPK1; conditions: at 10 µM
[8] = target: T2, Serine/threonine-protein kinase ICK (Homo sapiens) (UniProt Q9UPZ9); assay: Selectivity interaction (Ambit KINOMEscan and KiNATiv profiling in Jurkat cells) EUB0000090b ICK; assay type: cell-based; conditions: at 1 µM
T2 sequence (whole entry): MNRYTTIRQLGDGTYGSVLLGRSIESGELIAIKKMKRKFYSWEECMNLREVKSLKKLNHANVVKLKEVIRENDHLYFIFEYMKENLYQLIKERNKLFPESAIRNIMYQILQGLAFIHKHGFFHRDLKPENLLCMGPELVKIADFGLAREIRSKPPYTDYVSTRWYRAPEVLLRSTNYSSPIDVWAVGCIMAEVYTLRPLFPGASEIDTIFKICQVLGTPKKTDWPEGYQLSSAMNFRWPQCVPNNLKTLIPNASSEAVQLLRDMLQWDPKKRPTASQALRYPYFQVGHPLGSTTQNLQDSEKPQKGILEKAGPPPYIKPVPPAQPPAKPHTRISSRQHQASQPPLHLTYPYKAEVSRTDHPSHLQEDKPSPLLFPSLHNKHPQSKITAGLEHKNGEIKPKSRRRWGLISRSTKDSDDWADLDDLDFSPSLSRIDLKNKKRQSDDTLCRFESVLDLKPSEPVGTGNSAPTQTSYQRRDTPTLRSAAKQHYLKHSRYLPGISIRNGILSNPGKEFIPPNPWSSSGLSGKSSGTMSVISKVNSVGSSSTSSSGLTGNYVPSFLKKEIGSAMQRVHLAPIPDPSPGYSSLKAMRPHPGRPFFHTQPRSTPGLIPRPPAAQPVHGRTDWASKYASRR

[9] = target: Tyrosine-protein kinase ABL1 (Homo sapiens, UniProt P00519); assay: Selectivity interaction (Ambit KINOMEscan and KiNATiv profiling in Jurkat cells) EUB0000090b ABL1; assay type: cell-based; conditions: at 1 µM
[10] = target: LIM domain kinase 1 (Homo sapiens) (UniProt P53667); assay: Selectivity interaction (KinomeScan (DiscoverX)) EUB0001619a LIMK1; conditions: at 1 µM
[11] = target: Protein kinase C theta type (Homo sapiens, UniProt Q04759); assay: Selectivity interaction (KinomeScan (DiscoverX)) EUB0000655a PRKCQ; conditions: at 10 µM
[12] = target: T3, Protein kinase C zeta type (Homo sapiens) (UniProt Q05513); assay: Selectivity interaction (SelectScreen profiling (Invitrogen)) EUB0000607a PRKCZ; conditions: at 2 µM
T3 sequence (whole entry): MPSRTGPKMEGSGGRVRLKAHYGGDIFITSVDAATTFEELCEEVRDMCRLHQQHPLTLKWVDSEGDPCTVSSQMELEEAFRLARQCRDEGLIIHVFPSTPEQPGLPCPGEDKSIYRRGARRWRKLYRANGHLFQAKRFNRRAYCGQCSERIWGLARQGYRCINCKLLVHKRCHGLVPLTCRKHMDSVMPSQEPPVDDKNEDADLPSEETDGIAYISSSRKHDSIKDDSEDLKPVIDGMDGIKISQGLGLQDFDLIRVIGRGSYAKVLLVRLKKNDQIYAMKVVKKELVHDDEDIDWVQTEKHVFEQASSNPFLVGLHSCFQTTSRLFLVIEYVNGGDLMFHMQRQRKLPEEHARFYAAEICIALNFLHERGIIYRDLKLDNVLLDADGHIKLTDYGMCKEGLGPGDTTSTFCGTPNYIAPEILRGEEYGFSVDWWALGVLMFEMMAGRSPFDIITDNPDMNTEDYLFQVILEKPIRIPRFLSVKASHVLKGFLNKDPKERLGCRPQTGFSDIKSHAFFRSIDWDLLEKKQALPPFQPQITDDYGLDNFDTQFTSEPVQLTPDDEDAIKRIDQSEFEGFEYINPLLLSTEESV

[13] = target: DNA (cytosine-5)-methyltransferase 3B (Homo sapiens) (UniProt Q9UBC3); assay: Selectivity interaction (Methyltransferase screen (radiometric assays, panel of 8 PRMTs, 21 protein lysine methyltransferases, 3 DNA methyltransferases, and one RNA methyltransferase)) EUB0000271b DNMT3B

Sequence of Cyclin-dependent kinase 18 (Homo sapiens) (Q07002 whole entry): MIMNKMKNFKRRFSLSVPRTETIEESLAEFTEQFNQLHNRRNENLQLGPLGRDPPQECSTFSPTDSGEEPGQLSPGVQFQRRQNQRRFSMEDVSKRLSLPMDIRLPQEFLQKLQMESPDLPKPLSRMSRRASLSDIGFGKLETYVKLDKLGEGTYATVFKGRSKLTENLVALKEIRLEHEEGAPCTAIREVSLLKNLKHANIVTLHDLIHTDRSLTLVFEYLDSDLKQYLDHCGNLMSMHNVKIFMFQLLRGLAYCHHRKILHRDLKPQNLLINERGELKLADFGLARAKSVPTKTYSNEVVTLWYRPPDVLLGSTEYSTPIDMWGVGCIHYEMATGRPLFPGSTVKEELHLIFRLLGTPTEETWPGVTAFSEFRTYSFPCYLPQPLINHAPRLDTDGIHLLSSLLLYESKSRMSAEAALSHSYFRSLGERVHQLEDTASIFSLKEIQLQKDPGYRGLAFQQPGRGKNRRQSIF
Sequence of Tyrosine-protein kinase ABL1 (P00519 whole entry, the tested form may be a part): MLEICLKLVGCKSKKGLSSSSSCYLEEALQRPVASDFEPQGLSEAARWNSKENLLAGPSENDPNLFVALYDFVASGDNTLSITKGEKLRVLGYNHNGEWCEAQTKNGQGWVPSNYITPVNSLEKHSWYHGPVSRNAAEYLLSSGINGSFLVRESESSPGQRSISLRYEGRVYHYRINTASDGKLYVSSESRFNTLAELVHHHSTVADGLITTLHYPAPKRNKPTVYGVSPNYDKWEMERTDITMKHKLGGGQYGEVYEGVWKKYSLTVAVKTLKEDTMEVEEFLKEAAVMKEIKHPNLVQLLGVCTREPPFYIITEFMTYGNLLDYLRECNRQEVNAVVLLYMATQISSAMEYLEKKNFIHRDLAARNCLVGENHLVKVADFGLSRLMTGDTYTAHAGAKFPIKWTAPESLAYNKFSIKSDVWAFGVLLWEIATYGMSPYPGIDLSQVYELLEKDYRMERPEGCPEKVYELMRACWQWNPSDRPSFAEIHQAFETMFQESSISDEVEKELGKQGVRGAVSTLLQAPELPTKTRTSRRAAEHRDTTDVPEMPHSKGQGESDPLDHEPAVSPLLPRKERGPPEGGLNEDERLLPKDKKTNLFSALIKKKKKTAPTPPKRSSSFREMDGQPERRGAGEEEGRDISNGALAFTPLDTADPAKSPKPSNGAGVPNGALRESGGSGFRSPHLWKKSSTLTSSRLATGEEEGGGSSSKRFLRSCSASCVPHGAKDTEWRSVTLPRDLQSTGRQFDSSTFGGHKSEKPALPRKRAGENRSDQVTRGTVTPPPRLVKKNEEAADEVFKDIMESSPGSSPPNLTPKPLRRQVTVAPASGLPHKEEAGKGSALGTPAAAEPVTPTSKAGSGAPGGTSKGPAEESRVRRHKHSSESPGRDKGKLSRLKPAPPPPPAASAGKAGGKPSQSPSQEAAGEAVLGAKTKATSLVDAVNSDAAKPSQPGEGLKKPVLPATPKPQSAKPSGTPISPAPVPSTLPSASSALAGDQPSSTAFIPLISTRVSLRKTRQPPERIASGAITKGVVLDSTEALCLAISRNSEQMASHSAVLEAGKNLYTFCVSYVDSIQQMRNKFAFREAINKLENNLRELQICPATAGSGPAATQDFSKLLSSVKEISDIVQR
Sequence of Tyrosine-protein kinase ABL2 (P42684 whole entry): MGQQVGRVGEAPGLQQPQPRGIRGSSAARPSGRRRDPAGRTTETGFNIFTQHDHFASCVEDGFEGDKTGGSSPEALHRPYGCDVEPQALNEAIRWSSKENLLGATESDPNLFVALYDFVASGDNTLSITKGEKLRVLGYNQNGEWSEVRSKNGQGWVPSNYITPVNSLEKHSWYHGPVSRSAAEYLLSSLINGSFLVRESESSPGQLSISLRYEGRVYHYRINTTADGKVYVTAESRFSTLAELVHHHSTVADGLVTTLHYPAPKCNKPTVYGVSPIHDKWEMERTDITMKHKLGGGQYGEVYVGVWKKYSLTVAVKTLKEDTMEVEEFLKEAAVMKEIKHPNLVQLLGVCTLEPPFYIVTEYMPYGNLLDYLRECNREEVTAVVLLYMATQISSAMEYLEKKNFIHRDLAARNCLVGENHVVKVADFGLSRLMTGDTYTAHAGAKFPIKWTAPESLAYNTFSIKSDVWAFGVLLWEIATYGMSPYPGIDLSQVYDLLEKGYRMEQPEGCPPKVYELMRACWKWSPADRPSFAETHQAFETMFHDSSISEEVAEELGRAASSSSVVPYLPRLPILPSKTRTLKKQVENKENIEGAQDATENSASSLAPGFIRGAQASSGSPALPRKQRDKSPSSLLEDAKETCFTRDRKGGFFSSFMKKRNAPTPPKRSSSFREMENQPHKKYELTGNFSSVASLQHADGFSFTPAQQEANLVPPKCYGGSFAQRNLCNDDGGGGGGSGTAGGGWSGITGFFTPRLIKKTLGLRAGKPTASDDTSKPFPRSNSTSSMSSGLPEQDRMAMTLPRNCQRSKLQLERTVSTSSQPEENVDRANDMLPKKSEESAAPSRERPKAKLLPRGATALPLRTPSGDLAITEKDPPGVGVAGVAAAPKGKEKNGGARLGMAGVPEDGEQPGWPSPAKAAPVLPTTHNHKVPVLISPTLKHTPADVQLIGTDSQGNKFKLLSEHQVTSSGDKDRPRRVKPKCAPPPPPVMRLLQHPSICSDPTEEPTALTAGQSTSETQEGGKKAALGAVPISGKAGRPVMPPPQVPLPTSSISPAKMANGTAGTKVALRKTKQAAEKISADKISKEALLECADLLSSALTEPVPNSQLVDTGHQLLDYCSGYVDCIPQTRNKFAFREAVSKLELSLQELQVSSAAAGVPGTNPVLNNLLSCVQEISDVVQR
Sequence of LIM domain kinase 1 (Homo sapiens) (P53667 whole entry, looked up, the tested form may be a part): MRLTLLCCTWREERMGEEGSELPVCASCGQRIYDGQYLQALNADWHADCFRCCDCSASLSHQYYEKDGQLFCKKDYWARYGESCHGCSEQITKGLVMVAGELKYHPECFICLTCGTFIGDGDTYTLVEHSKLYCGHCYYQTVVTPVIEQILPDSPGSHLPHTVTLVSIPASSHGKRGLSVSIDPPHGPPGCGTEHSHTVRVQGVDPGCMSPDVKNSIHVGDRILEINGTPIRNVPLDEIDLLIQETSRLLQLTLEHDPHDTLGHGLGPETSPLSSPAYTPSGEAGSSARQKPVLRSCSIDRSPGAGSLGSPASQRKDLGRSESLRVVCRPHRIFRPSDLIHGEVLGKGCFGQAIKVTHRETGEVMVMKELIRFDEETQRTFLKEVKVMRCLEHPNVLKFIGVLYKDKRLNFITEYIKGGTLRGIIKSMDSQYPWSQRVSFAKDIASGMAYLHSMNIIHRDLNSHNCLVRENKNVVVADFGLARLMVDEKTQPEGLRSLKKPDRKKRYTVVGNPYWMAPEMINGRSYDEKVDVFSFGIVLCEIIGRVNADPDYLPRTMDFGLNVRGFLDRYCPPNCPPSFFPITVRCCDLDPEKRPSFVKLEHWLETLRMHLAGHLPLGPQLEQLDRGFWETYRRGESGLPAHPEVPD
Sequence of Protein kinase C theta type (Q04759 whole entry, looked up): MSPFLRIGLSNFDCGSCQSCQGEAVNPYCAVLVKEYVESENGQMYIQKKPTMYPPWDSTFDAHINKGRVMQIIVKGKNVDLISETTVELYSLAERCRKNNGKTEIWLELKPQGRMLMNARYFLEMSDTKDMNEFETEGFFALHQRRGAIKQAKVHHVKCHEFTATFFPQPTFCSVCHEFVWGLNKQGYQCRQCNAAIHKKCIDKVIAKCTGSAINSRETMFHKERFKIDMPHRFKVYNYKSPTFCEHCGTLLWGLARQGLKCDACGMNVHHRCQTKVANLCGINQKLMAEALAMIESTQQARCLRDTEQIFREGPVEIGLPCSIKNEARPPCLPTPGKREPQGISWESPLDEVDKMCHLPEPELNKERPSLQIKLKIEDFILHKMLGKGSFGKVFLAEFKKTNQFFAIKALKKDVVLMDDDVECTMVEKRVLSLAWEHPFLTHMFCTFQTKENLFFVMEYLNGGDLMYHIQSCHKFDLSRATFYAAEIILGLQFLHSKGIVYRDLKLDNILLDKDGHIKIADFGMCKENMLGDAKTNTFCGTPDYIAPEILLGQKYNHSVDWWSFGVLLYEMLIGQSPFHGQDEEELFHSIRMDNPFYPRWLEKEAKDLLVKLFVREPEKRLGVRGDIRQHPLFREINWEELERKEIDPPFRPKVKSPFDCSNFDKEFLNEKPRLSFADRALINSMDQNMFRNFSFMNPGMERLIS
Sequence of SRSF protein kinase 1 (Q96SB4 whole entry): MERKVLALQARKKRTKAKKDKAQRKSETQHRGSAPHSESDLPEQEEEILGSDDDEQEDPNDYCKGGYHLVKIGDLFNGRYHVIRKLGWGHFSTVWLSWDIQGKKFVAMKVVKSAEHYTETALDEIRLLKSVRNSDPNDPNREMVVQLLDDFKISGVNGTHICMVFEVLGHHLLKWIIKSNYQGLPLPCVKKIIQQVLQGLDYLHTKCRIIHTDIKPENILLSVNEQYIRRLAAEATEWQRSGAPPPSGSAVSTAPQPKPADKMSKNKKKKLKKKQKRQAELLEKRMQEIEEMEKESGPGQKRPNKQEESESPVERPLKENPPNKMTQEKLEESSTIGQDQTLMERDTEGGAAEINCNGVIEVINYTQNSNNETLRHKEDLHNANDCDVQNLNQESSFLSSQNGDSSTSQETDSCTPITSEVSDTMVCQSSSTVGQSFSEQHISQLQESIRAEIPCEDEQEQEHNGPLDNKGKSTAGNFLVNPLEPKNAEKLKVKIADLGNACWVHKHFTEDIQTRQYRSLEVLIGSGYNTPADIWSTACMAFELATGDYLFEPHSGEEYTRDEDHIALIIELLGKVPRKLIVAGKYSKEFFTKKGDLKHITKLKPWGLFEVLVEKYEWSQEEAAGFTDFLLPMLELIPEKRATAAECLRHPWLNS

Question: Which % of control [1] does the source give for `COc1cc(Nc2nc(C)cc(-c3cnn4nc(OC)ccc34)n2)cc(C(F)(F)F)c1` here?
Answer: 76%

Question: Which % of inhibition [2] does the source give for `CN1Cc2nccc(-c3cn(C)nc3-c3ccc(F)cc3)c2C1=O` here?
Answer: 4%

Question: With `COc1cc(N(C)c2ccnc3ccc(C(F)(F)F)cc23)cc(OC)c1OC` as the compound, how does the % binding [3] read?
Answer: 98%

Question: And the % binding [4]?
Answer: 91%

Question: Which results are given for `CC[C@@H]1[C@H](F)C(=O)N[C@@H]1COc1nccc2cc(C(N)=O)c(OC)cc12` [ZIMLOVISERTIB]?
Answer: % of inhibition [5]: -4.2%; % of inhibition [6]: 3.1%

Question: For `COCC(=O)NC/C=C/c1ccc2ncnc(Nc3ccc(Oc4ccc(C)nc4)c(C)c3)c2c1` [CP-724714], which % of control [7] is on record?
Answer: 100%

Question: For `CN(C)C/C=C/C(=O)Nc1ccc(C(=O)N2CCCC(Nc3ncc(Cl)c(-c4c[nH]c5ccccc45)n3)C2)cc1` (centres undefined), which % of control [8] is on record?
Answer: 62%

Question: And the % of control [9]?
Answer: 97%

Question: With `N#Cc1cccc(-c2c[nH]c3ncnc(N4CCOCC4)c23)c1` as the compound, how does the % of control [10] read?
Answer: 93%

Question: With `CN(C)CCOc1ccc(-c2nc(-c3ccncc3)c(-c3ccc4c(c3)CC/C4=N\O)[nH]2)cc1` as the compound, how does the % of control [11] read?
Answer: 81%

Question: With `CNC(=O)Nc1ccc(-c2nc(N3CC4CCC(C3)O4)c3cnn(C4CCC5(CC4)OCCO5)c3n2)cc1` as the compound, how does the % of inhibition [12] read?
Answer: 8%

Question: With `Cc1cc(C)cc([C@@H]2c3cc(C)ccc3NC(=O)CN2C(=O)c2ccc(Br)s2)c1` as the compound, how does the % of activity ([13]; at 1 µM) read?
Answer: 103%

Question: And the % of activity ([13]; at 10 µM)?
Answer: 98.3%

From ChEMBL document CHEMBL5465560, “Selectivity Literature for EUbOPEN Chemogenomic Library” (2024)
